Activity calls are given as the source filed them. The calls are words filed in the database; no cut-off is given here. Some results are limits rather than exact numbers.

The results in this text go back to ChEMBL document CHEMBL4706657, “The Development of Hsp90β-Selective Inhibitors to Overcome Detriments Associated with pan-Hsp90 Inhibition” (J Med Chem, 2021).

Data set [1] concerns the target T1, Heat shock protein HSP 90-alpha (Homo sapiens, UniProt P07900).
Description: Inhibition of FITC-GDA binding to human HSP90-alpha incubated for 2 hrs by fluorescence polarization assay
Data set [2] addresses T2, Heat shock protein HSP 90-beta (Homo sapiens, UniProt P08238).
Description: Inhibition of FITC-GDA binding to human HSP90-beta incubated for 2 hrs by fluorescence polarization assay
For data set [3], the system named is SK-BR-3. The data set is described as follows: Induction of heat shock response in human SK-BR-3 cells at 10 uM incubated for 18 hrs by Western blot analysis. The data set is classed as cell-based. As to conditions: sk-br-3, 18 h. (In western blotting, separated proteins are transferred to a membrane and probed.)
In data set [4] the test system is PC-3. Kind of data set: Growth inhibition of human PC-3 cells incubated for 72 hrs by Cell Titer-Glo luminescent cell viability assay. The data set is classed as functional. Background: Cellular ATP, detected with luciferase, serves as a proxy for viable cell number.
A short description of data set [5]: Growth inhibition of human LNCaP-LN3 cells incubated for 72 hrs by Cell Titer-Glo luminescent cell viability assay. The data set is classed as functional.
The subject of data set [6] is Panel NCI-60 (60 carcinoma cell lines). The data set is described as follows: Growth inhibition of human NCI60 cells incubated for 72 hrs by Cell Titer-Glo luminescent cell viability assay. The data set is classed as functional.
Data set [7] relates to UMUC3. As to conditions: time 72 hrs.
The target of data set [8] is Endoplasmin (Canis lupus familiaris, UniProt P41148). Kind of data set: Inhibition of FITC-GDA binding to dog GRP94 incubated for 2 hrs by fluorescence polarization assay. Background: Fluorescence polarisation rises when a labelled molecule tumbles more slowly, as on binding a larger partner.
Sequence of Endoplasmin (P41148 whole entry): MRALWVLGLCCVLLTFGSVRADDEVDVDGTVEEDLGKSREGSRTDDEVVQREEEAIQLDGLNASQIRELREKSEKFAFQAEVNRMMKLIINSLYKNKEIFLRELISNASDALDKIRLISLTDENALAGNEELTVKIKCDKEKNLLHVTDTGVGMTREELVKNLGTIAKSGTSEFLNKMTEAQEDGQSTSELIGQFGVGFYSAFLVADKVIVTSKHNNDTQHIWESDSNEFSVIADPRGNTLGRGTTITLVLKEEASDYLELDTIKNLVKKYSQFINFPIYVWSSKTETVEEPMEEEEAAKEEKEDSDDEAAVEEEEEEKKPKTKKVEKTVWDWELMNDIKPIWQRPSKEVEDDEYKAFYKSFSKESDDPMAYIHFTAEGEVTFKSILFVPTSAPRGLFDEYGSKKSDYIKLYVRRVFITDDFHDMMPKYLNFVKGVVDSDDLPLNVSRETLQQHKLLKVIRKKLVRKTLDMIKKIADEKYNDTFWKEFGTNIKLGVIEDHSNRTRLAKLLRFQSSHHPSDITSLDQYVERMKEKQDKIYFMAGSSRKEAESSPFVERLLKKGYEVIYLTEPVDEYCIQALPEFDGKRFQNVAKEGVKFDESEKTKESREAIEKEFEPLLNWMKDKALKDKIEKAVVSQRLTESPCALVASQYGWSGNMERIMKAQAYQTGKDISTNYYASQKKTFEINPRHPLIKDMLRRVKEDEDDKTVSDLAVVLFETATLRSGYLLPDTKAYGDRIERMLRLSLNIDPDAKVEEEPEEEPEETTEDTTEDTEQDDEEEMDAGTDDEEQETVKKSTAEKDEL
Data set [9] has as its target T2, Heat shock protein HSP 90-beta. As to conditions: HCT-116, dose 300-1000 nM, time 24.0 hrs.
Data set [10] has the same target. As to conditions: HCT-116, dose 300-1000 nM, time 24.0 hrs. This is another data set of the same source.
For data set [11] the target is unchanged. The settings on record: HCT-116, dose 300-1000 nM, time 24.0 hrs. This is another data set of the same source.
Data set [12] shares this target. The settings on record: HCT-116, dose 300-1000 nM, time 24.0 hrs. The source holds these as a separate data set.
In data set [13] the target is T1, Heat shock protein HSP 90-alpha. The settings on record: HCT-116, dose 300-1000 nM, time 24.0 hrs.
Data set [14] relates to SK-BR-3. The data set is described as follows: Induction of heat shock response in human SK-BR-3 cells at 1 uM incubated for 18 hrs by Western blot analysis. The settings on record: sk-br-3, 18 h. The format is cell-based.

T2 sequence (P08238 whole entry): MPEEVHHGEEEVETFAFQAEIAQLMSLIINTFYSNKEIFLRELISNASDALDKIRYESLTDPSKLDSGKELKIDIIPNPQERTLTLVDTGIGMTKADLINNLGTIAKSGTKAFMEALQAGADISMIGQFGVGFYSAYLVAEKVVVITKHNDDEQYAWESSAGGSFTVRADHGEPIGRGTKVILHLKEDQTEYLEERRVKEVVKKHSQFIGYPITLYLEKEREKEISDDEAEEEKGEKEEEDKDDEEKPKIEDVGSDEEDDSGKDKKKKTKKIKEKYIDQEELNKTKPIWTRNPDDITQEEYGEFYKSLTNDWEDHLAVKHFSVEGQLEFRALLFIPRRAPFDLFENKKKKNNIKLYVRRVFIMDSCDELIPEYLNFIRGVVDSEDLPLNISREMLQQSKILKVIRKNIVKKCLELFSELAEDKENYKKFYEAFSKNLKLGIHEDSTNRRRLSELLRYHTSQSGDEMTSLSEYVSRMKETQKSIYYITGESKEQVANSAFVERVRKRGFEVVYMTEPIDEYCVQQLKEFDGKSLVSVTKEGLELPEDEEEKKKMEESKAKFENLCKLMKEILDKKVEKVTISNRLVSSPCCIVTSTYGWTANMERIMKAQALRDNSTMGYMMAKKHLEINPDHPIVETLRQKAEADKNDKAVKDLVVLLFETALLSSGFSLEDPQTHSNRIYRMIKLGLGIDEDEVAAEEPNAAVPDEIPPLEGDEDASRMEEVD

A word on the IC50: it is the midpoint of a concentration-inhibition curve. Higher therefore signals weaker potency in that assay. On to `CCCc1cc2cc(-n3nc(C)c4c3CC(C)(C)CC4=O)cc(N3CCN(C)CC3)c2c(=O)[nH]1`, for which the IC50 is 8520 nM in data set [1] and 426 nM in [2].
As for `Cc1nn(-c2cc(N[C@H]3CC[C@H](O)CC3)c3c(=O)[nH]c(C(C)C)cc3c2)c2c1C(=O)CC(C)(C)C2`, the figures for the IC50 in [1] and in data set [2] were 173 nM and 51 nM, respectively.
Turning to `CCCc1cc2cc(-n3nc(C)c4c3CC(C)(C)CC4=O)cc(N3CCC(O)CC3)c2c(=O)[nH]1`, in [3], the Activity entry is reported as “Non-Toxic”.
Regarding `Cc1nn(-c2cc(N[C@H]3CC[C@H](O)CC3)c3c(=O)[nH]c(C4CC4)cc3c2)c2c1C(=O)CC(C)(C)C2`, the IC50 in [1] came to 1880 nM; in data set [2] it was 946 nM.
In general, GI50 refers to the concentration that inhibits growth by half. A low value points to greater sensitivity of the cells. As to `CCCc1cc2cc(-n3nc(C)c4c3CC(C)(C)CC4=O)cc(N[C@H]3CC[C@H](O)CC3)c2c(=O)[nH]1`, the GI50 in data set [4] was 1560 nM; in [5], 1070 nM; in data set [6], below 100 nM; in data set [7], 450 nM.
Turning to `Cc1nn(-c2cc(N[C@H]3CC[C@H](O)CC3)c3c(=O)[nH]c(CC(C)C)cc3c2)c2c1C(=O)CC(C)(C)C2`, the IC50 is above 50000 nM in [1] and 264 nM in [2].
Regarding `Cc1cc2cc(-n3nc(C)c4c3CC(C)(C)CC4=O)cc(N[C@H]3CC[C@H](O)CC3)c2c(=O)[nH]1`, the results for the IC50 in [1] and in [2] were 294 nM and 101 nM, respectively.
In the case of `Cc1nn(-c2cc(N[C@H]3CC[C@H](O)CC3)c3c(=O)[nH]c(C(C)(C)C)cc3c2)c2c1C(=O)CC(C)(C)C2`, the IC50 in data set [1] and in data set [2] was above 50000 nM in each case.
Take `CCCc1cc2cc(-n3nc(C)c4c3CC(C)(C)CC4=O)cc(N3CCN(C(=O)OC(C)(C)C)CC3)c2c(=O)[nH]1`: the IC50 is above 50000 nM in [1] and 463 nM in data set [2].
In the case of `CCCc1cc2cc(-n3nc(C)c4c3CC(C)(C)CC4=O)cc(N3CCNCC3)c2c(=O)[nH]1`, the IC50 was above 50000 nM in [1] and 4470 nM in [2].
`CCCc1cc2cc(-n3nc(C)c4c3CC(C)(C)CC4=O)cc(N3CCOCC3)c2c(=O)[nH]1`: the IC50 is above 50000 nM in data set [1] and 121 nM in data set [2].
`COCc1cc2cc(-n3nc(C)c4c3CC(C)(C)CC4=O)cc(N[C@H]3CC[C@H](O)CC3)c2c(=O)[nH]1`: the half-maximal inhibitory concentration (IC50) was determined as 306 nM in data set [1] and 159 nM in data set [2].
`Cc1cn(-c2cc3c(c(C4CCCC4)c2)C(=O)NCC3)c2c1C(=O)CC(C)(C)C2` gave an IC50 in data set [8] above 10 µM.
With `CCCC1Cc2cc(-n3nc(C)c4c3CC(C)(C)CC4=O)cc(N[C@H]3CC[C@H](O)CC3)c2C(=O)N1` (stereo partly drawn), the IC50 was 1600 nM in data set [1] and 33 nM in [2]. Further, the inhibition result in data set [9], in data set [10], in [11] and in data set [12] was “Active” each time. The GI50 in data set [6] is below 100 nM. The inhibition result in data set [13] was “inactive”.
As to `CCCC1Cc2cc(-n3nc(C)c4c3CC(C)(C)CC4=O)cc(N3CCC(O)CC3)c2C(=O)N1` (stereo not drawn), the concentration for half-maximal inhibition (IC50) in data set [1] is above 10000 nM; in [2], above 5000 nM.
On the same counts, the results for `CCCCc1cc2cc(-n3nc(C)c4c3CC(C)(C)CC4=O)cc(N[C@H]3CC[C@H](O)CC3)c2c(=O)[nH]1` are above 50000 nM and 156 nM.
In data set [8], `CC(C)c1cc(C(=O)N2Cc3ccccc3C2)c(O)c2cnoc12` yielded an IC50 of 8.48 µM.
For the molecule `COC1=C2C[C@@H](C)C[C@H](OC)[C@H](O)[C@@H](C)/C=C(\C)[C@H](OC(N)=O)[C@@H](OC)/C=C\C=C(/C)C(=O)NC(=CC1=O)C2=O` [GELDANAMYCIN], the Activity entry in data set [14] is on record as “Toxic”.
For `Cc1nn(-c2cc(N[C@H]3CC[C@H](O)CC3)c3c(=O)[nH]c(CO)cc3c2)c2c1C(=O)CC(C)(C)C2`, the values for the IC50 in data set [1] and in data set [2] were 824 nM and 233 nM, respectively.
On the same counts, the results for `CCCc1cc2cc(-n3nc(C)c4c3CC(C)(C)CC4=O)cc(NC3CCN(C)CC3)c2c(=O)[nH]1` are 17100 nM and 513 nM.
On to `CCc1cc2cc(-n3nc(C)c4c3CC(C)(C)CC4=O)cc(N[C@H]3CC[C@H](O)CC3)c2c(=O)[nH]1`, for which the IC50 stood at 180 nM in data set [1] and 68 nM in data set [2].
With `CCCc1cc2cc(-n3nc(C)c4c3CC(C)(C)CC4=O)cc(N(C)CCN(CC)CC)c2c(=O)[nH]1`, the IC50 is above 50000 nM in data set [1] and 4460 nM in data set [2].
